The text below walks through data of patent US9023789B2, “Amylin analogs and pharmaceutical compositions thereof” (Novo Nordisk A/S, priority 2012, dated 2015).

The target in test [1] is T1, human calcitonin (a) receptor in BHK570 cells (Homo sapiens, UniProt P30988).
T1 construct: expressed in transfected cells
T1 sequence (P30988 25-474): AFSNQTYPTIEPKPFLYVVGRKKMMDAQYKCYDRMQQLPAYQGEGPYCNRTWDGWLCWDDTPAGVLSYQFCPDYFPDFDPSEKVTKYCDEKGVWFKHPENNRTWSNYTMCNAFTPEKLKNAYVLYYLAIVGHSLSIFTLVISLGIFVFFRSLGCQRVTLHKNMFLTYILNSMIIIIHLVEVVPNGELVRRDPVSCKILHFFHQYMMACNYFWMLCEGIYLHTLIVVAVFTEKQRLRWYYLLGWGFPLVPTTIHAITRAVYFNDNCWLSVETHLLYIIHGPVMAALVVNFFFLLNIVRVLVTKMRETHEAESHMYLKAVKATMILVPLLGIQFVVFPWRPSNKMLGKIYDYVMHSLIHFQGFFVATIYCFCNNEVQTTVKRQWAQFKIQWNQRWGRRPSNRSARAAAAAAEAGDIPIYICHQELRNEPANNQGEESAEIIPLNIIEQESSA
Kind of test: ASSAY (II)a functional assay, human calcitonin receptor (CRE luciferase). The class given is cell-based. The note with it: read-out: hCTR funct. EC50. In outline: (§1)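 Receptor activation is measured as cAMP-driven CRE-luciferase expression in BHK cells expressing the calcitonin receptor, with RAMP-3 co-expressed to form the amylin 3(a) receptor. Cells are exposed to compound for 3 hours at 37° C, and luciferase is then quantified by luminescence.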

The target of test [2] is T2, human calcitonin receptor (Homo sapiens, UniProt P30988).
T2 construct: expressed in transfected cells
T2 sequence (P30988 25-474): T1 sequence (P30988 25-474)
Kind of test: ASSAY (VII) binding to the human calcitonin receptor (SPA, 125I-Calcitonin).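 Also: cell membranes (35 ng/µL) combined with SPA beads in 40 µL of pH 7.4 Hepes buffer, 384-well format, signal counted on a TopCounter instrument.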 The following applies: read-out: hCTR bind IC50.

In test [3] the target is T3, human amylin 3(a) receptor (human calcitonin receptor + RAMP-3) in BHK570 cells (Homo sapiens, UniProt O60896+P30988).
T3 construct: expressed in transfected cells
T3 sequence (O60896 24-148, one chain of several): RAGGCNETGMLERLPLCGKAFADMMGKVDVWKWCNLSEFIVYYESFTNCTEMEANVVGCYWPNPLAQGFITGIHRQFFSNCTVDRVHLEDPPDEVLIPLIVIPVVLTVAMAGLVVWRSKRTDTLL
As to the kind of experiment: ASSAY (II)a functional assay, human amylin receptor (CRE luciferase). The class given is cell-based. The following applies: for EC50: human amylin receptor functional potency, assay (II), read-out: hAmylin-R funct. EC50. The method, boiled down: as §1

The mark [4] stands for this setting: hCTR funct. EC50 divided by hAmylin-R funct. EC50.
Setting [5] is: hCTR funct. EC50 over hAmylin-R funct. EC50.
[6] abbreviates: human functional selectivity: hCTR funct. EC50 / hAmylin-R funct. EC50.
Where [7] appears, read: hCTR funct. EC50 / hAmylin-R funct. EC50.

Numbered stars: 1 amine (or outer) side, 2 acyl side, 3 side chain; on linkers, the order of the positions; unused ones are H or OH. Bridge positions count the residues as written; N and C are the ends. Side chains are listed from the residue outwards. Peptide text beside a SMILES is read from it. * marks the point of attachment. C20 diacid = O=C(O)CCCCCCCCCCCCCCCCCCC(=O)*; γGlu = O=C(O)[C@H](CCC(=O)[*:2])N[*:1]; AEEA = NCCOCCOCC(=O)O

As for `CC[C@H](C)[C@H](NC(=O)[C@H](C)NC(=O)CNC(=O)[C@H](Cc1ccccc1)NC(=O)[C@H](CC(N)=O)NC(=O)[C@@H]1CCCN1C(=O)[C@H](CO)NC(=O)[C@H](CO)NC(=O)[C@H](Cc1c[nH]cn1)NC(=O)[C@H](CCCNC(=N)N)NC(=O)[C@H](CC(C)C)NC(=O)[C@H](Cc1ccccc1)NC(=O)[C@H](Cc1c[nH]cn1)NC(=O)[C@H](C)NC(=O)[C@H](CC(C)C)NC(=O)[C@H](CCCNC(=N)N)NC(=O)[C@H](CCC(N)=O)NC(=O)[C@@H](NC(=O)[C@H](C)NC(=O)[C@@H]1CSSC[C@H](NC(=O)[C@@H](N)CCCCNC(=O)COCCOCCNC(=O)CC[C@H](NC(=O)CCCCCCCCCCCCCCCCCCC(=O)O)C(=O)O)C(=O)N[C@@H](CC(N)=O)C(=O)N[C@@H]([C@@H](C)O)C(=O)N[C@@H](C)C(=O)N[C@@H]([C@@H](C)O)C(=O)N1)[C@@H](C)O)C(=O)N1CCC[C@H]1C(=O)N[C@@H](CO)C(=O)N[C@@H](CO)C(=O)N[C@H](C(=O)N[C@@H](CC(N)=O)C(=O)N[C@H](C(=O)NCC(=O)N[C@@H](Cc1c[nH]cn1)C(=O)N[C@@H](CC(N)=O)C(=O)N[C@H](C(=O)N[C@@H](Cc1ccc(O)cc1)C(N)=O)[C@@H](C)O)C(C)C)[C@@H](C)O` [Example 80] (H-K([AEEA-γGlu-C20 diacid])CNTATCATQRLAHFLRHSSPNFGAIPSSTNVGHNTY-NH2; disulfide 2-7; N-terminus assumed), the EC50 in test [1] came to 2.14 nM; in test [3], 0.139 nM. The IC50 in test [2] worked out at 19.8 nM. Also, the “Ratio hCT/hAmylin funct.” value in test [3] (setting [4]), in test [3] (setting [5]) and in test [3] (setting [6]) was 15.4 each time.

Turning to `CC[C@H](C)[C@H](NC(=O)[C@H](C)NC(=O)CNC(=O)[C@H](Cc1ccccc1)NC(=O)[C@H](CC(N)=O)NC(=O)[C@@H]1CCCN1C(=O)[C@H](CO)NC(=O)[C@H](CO)NC(=O)[C@H](Cc1c[nH]cn1)NC(=O)[C@H](CCCNC(=N)N)NC(=O)[C@H](CC(C)C)NC(=O)[C@H](Cc1ccccc1)NC(=O)[C@H](CCC(=O)O)NC(=O)[C@H](C)NC(=O)[C@H](CC(C)C)NC(=O)[C@H](CCCNC(=N)N)NC(=O)[C@H](CCC(N)=O)NC(=O)[C@@H](NC(=O)[C@H](C)NC(=O)[C@@H]1CSSC[C@H](NC(=O)[C@@H](N)CCCCNC(=O)CC[C@H](NC(=O)CCCCCCCCCCCCCCCCCCC(=O)O)C(=O)O)C(=O)N[C@@H](CC(N)=O)C(=O)N[C@@H]([C@@H](C)O)C(=O)N[C@@H](C)C(=O)N[C@@H]([C@@H](C)O)C(=O)N1)[C@@H](C)O)C(=O)N1CCC[C@H]1C(=O)N[C@@H](CO)C(=O)N[C@@H](CO)C(=O)N[C@H](C(=O)N[C@@H](CC(N)=O)C(=O)N[C@H](C(=O)NCC(=O)N[C@@H](CCCNC(=N)N)C(=O)N[C@@H](CCC(=O)O)C(=O)N[C@H](C(=O)N[C@@H](Cc1ccc(O)cc1)C(N)=O)[C@@H](C)O)C(C)C)[C@@H](C)O` [Example 108] (H-K([γGlu-C20 diacid])CNTATCATQRLAEFLRHSSPNFGAIPSSTNVGRETY-NH2; disulfide 2-7; N-terminus assumed), the concentration giving a half-maximal response (EC50) in test [1] was 2.75 nM; in test [3], 0.421 nM. The half-inhibitory concentration (IC50) in test [2] is 6.62 nM. For the same compound, the “Ratio hCT/hAmylin funct.” value in test [3] (setting [4]), in test [3] (setting [5]) and in test [3] (setting [6]) was 6.5 in each case.

As to `CC[C@H](C)[C@H](NC(=O)[C@H](C)NC(=O)CNC(=O)[C@H](Cc1ccccc1)NC(=O)[C@H](CC(N)=O)NC(=O)[C@@H]1CCCN1C(=O)[C@H](CO)NC(=O)[C@H](CO)NC(=O)[C@H](Cc1c[nH]cn1)NC(=O)[C@H](CCCNC(=N)N)NC(=O)[C@H](CC(C)C)NC(=O)[C@H](Cc1ccccc1)NC(=O)[C@H](CCC(=O)O)NC(=O)[C@H](C)NC(=O)[C@H](CC(C)C)NC(=O)[C@H](CCCNC(=N)N)NC(=O)[C@H](CCC(N)=O)NC(=O)[C@@H](NC(=O)[C@H](C)NC(=O)[C@@H]1CSSC[C@H](NC(=O)[C@H](CCCCN)NC(=O)CC[C@H](NC(=O)CCCCCCCCCCCCCCCCCCC(=O)O)C(=O)O)C(=O)N[C@@H](CC(N)=O)C(=O)N[C@@H]([C@@H](C)O)C(=O)N[C@@H](C)C(=O)N[C@@H]([C@@H](C)O)C(=O)N1)[C@@H](C)O)C(=O)N1CCC[C@H]1C(=O)N[C@@H](CO)C(=O)N1CCC[C@H]1C(=O)N[C@H](C(=O)N[C@@H](CC(N)=O)C(=O)N[C@H](C(=O)NCC(=O)N[C@@H](CO)C(=O)N[C@@H](CC(N)=O)C(=O)N[C@H](C(=O)N[C@@H](Cc1ccc(O)cc1)C(N)=O)[C@@H](C)O)C(C)C)[C@@H](C)O` [Example 37] ({C20 diacid-γGlu}-KCNTATCATQRLAEFLRHSSPNFGAIPSPTNVGSNTY-NH2; disulfide 2-7 (inferred)), the EC50 is 0.372 nM in test [1] and 0.092 nM in test [3]. For the same compound, the IC50 in test [2] stood at 2.18 nM. The “Ratio hCT/hAmylin funct.” value in test [3] (setting [7]), in test [3] (setting [4]), in test [3] (setting [5]) and in test [3] (setting [6]) was 4.0 each time.

On to `CC[C@H](C)[C@H](NC(=O)[C@H](C)NC(=O)CNC(=O)[C@H](Cc1ccccc1)NC(=O)[C@H](CC(N)=O)NC(=O)[C@@H]1CCCN1C(=O)[C@H](CO)NC(=O)[C@H](CO)NC(=O)[C@H](Cc1c[nH]cn1)NC(=O)[C@H](CCCNC(=N)N)NC(=O)[C@H](CC(C)C)NC(=O)[C@H](Cc1ccccc1)NC(=O)[C@H](CCC(=O)O)NC(=O)[C@H](C)NC(=O)[C@H](CC(C)C)NC(=O)[C@H](CCCNC(=N)N)NC(=O)[C@H](CCC(N)=O)NC(=O)[C@@H](NC(=O)[C@H](C)NC(=O)[C@@H]1CSSC[C@H](NC(=O)[C@H](CCCCN)NC(=O)CC[C@H](NC(=O)CCCCCCCCCCCCCCCCCCC(=O)O)C(=O)O)C(=O)N[C@@H](CC(N)=O)C(=O)N[C@@H]([C@@H](C)O)C(=O)N[C@@H](C)C(=O)N[C@@H]([C@@H](C)O)C(=O)N1)[C@@H](C)O)C(=O)N1CCC[C@H]1C(=O)N[C@@H](CO)C(=O)N[C@@H](CO)C(=O)N[C@H](C(=O)N[C@@H](CC(N)=O)C(=O)N[C@H](C(=O)NCC(=O)N[C@@H](CO)C(=O)N[C@@H](CCCNC(=N)N)C(=O)N[C@H](C(=O)N[C@@H](Cc1ccc(O)cc1)C(N)=O)[C@@H](C)O)C(C)C)[C@@H](C)O` [Example 16] ({C20 diacid-γGlu}-KCNTATCATQRLAEFLRHSSPNFGAIPSSTNVGSRTY-NH2; disulfide 2-7), for which the “Ratio hCT/hAmylin funct.” value in test [3] (setting [4]), in test [3] (setting [5]) and in test [3] (setting [6]) was 6.1 each time.

For `CC[C@H](C)[C@H](NC(=O)[C@H](C)NC(=O)CNC(=O)[C@H](Cc1ccccc1)NC(=O)[C@H](CC(N)=O)NC(=O)[C@@H]1CCCN1C(=O)[C@H](CO)NC(=O)[C@H](CO)NC(=O)[C@H](Cc1c[nH]cn1)NC(=O)[C@H](CCCNC(=N)N)NC(=O)[C@H](CC(C)C)NC(=O)[C@H](Cc1ccccc1)NC(=O)[C@H](CCC(=O)O)NC(=O)[C@H](C)NC(=O)[C@H](CC(C)C)NC(=O)[C@H](CCCNC(=N)N)NC(=O)[C@H](CCC(N)=O)NC(=O)[C@@H](NC(=O)[C@H](C)NC(=O)[C@@H]1CSSC[C@H](NC(=O)[C@@H](N)CCCCNC(=O)CC[C@H](NC(=O)CCCCCCCCCCCCCCCCCCC(=O)O)C(=O)O)C(=O)N[C@@H](CC(N)=O)C(=O)N[C@@H]([C@@H](C)O)C(=O)N[C@@H](C)C(=O)N[C@@H]([C@@H](C)O)C(=O)N1)[C@@H](C)O)C(=O)N1CCC[C@H]1C(=O)N[C@@H](CO)C(=O)N[C@@H](CO)C(=O)N[C@H](C(=O)N[C@@H](CC(N)=O)C(=O)N[C@H](C(=O)NCC(=O)N1CCC[C@H]1C(=O)N[C@@H](CC(N)=O)C(=O)N[C@H](C(=O)N1CCC[C@H]1C(N)=O)[C@@H](C)O)C(C)C)[C@@H](C)O` [Example 114] (H-K([γGlu-C20 diacid])CNTATCATQRLAEFLRHSSPNFGAIPSSTNVGPNTP-NH2; disulfide 2-7 (inferred); N-terminus assumed), the “Ratio hCT/hAmylin funct.” value in test [3] (setting [7]), in test [3] (setting [4]), in test [3] (setting [5]) and in test [3] (setting [6]) was 0.9 throughout.

By EC50 is commonly meant the midpoint of the concentration-response curve. Usually IC50 stands for the concentration at which inhibition is half-maximal.
